From patent US10363245B2, “Methods for treating CNS lesions” (THE BOARD OF REGENTS OF THE UNIVERSITY OF TEXAS SYSTEM, priority 2017, dated 2019)

Experiments:
MS patients [1] = assay: Stage 1B dose-escalation study: twice daily oral ACZ, cerebral blood flow by pCASL MRI, DTI and T2 relaxometry
MS patients [2] = assay: Stage 1A clinical study: single 1000 mg IV ACZ bolus, cerebral blood flow by pCASL MRI
healthy controls = settings: historical reports; cited from earlier work
[3] = Subj 001, oral 1000 mg BID for 2 weeks, versus baseline

CC(=O)Nc1nnc(S(N)(=O)=O)s1 [ACZ, acetazolamide]
CBF in the region with the larger T2 to T1 mismatch (qualitative pCASL) (MS patients [1]; [3]): increased
qualitative DTI and T2 relaxometry measures (MS patients [1]; [3]): changed little
potential for tachyphylaxis (MS patients [1]; oral, 1000 mg twice daily): limited if any potential for tachyphylaxis
sustained increases in global CBF (MS patients [1]; oral, 1000 mg twice daily): 10-25%
tolerability of oral ACZ (MS patients [1]; oral, 1000 mg twice daily): well tolerated, with minimal reported adverse events
time for global CBF to return near baseline (MS patients [2]; after IV ACZ, MS patients): 120 min
change in global cerebral perfusion (pCASL) (MS patients [2]; following IV ACZ): Rapid increases
duration of increases in CBF above baseline (MS patients [2]; single 1000 mg IV bolus, regardless of region): up to 180 minutes
tolerability of single IV bolus (MS patients [2]; single bolus of IV ACZ, five MS patients): generally well tolerated without serious AEs
time for cerebral blood flow (CBF) to return near baseline (healthy controls): ≤ 60 min
